The source of these data is patent US8329913B2, “Carbazole derivative, solvate thereof, or pharmaceutically acceptable salt thereof” (Zeria Pharmaceutical Co., Ltd., priority 2004, dated 2012).

By IC50 is commonly meant the concentration that gives 50% inhibition.

The target of this experiment is T1, human PPARγ (Homo sapiens, UniProt P37231).
T1 construct: 1.6 kb of fragment of the prepared plasmid pGEMT-hPPARg2 including human PPARγ gene; expressed in transfected cells; host or cells: CV-1 cells, transient transfection with pCI-hPPARg2, pCI-hRXRa and the reporter pGL3-PPRE3-TK
T1 sequence (P37231 1-505): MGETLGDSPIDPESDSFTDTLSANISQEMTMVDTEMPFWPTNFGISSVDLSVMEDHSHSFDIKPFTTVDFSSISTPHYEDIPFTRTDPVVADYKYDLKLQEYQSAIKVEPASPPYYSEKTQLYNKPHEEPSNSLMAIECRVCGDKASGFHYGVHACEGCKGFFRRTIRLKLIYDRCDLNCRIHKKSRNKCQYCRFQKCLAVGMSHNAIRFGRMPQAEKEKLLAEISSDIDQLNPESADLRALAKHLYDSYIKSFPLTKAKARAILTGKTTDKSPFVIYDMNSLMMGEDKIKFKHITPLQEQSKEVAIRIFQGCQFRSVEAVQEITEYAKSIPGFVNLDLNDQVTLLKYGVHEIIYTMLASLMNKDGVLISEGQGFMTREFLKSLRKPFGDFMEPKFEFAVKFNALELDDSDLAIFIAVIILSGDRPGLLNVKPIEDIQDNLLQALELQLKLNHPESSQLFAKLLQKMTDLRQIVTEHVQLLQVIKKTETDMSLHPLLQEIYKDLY
T1 sequence (P19793 1-462 partner): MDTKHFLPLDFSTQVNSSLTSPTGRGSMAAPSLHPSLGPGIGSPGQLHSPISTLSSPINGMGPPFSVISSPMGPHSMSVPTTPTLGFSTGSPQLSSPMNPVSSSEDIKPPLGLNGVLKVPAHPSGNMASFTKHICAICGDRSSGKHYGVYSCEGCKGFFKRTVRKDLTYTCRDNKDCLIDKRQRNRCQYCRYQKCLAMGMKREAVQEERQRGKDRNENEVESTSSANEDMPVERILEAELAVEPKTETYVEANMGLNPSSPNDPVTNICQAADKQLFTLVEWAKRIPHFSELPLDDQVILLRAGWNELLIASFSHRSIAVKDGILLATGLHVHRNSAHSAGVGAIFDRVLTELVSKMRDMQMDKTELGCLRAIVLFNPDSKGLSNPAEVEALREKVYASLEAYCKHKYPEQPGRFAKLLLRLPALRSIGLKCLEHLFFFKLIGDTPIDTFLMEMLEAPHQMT
The experiment is described as follows: Human PPARγ antagonist assay (luciferase reporter in transfected CV-1 cells). The settings on record: CV-1 cells expressing human PPARγ and RXRα with reporter plasmid; pioglitazone 1 μM as stimulant; 24 hours; read-out: Human PPARγ antagonist activities, Inhibition IC50. The format is cell-based. In short, it runs like this: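 CV-1 cells transiently co-transfected with human PPARγ2, RXRα, PPRE3-TK firefly luciferase and renilla plasmids were exposed 24 h at 37 °C to compound (10 nM–3 μM) plus 1 μM pioglitazone. Firefly/renilla ratios were scaled between pioglitazone alone (0%) and no addition (100%), and IC50 was taken at 50% inhibition.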
(A reporter such as luciferase makes a cellular process visible.)
In the case of `COc1cc(Cn2c3ccccc3c3c(OCC(C)(C)C(=O)O)cccc32)ccc1OCc1nc(-c2ccco2)oc1C` [Example 23, 3-{9-[4-((2-(furan-2-yl)-5-methyl-oxazole-4-yl)methoxy)-3-methoxy-benzyl]-9H-carbazole-4-yloxy}-2,2-dimethyl-propionic acid], the concentration for half-maximal inhibition (IC50) came to 93 nM.

As to `COc1cc(Cn2c3ccccc3c3c(OCC(C)(C)C(=O)O)cccc32)ccc1OCc1nc(-c2cccs2)oc1C` [Example 24, 3-{9-[3-methoxy-4-((5-methyl-2-(thiophene-2-yl)-oxazole-4-yl)methoxy)-benzyl]-9H-carbazole-4-yloxy}-2,2-dimethyl-propionic acid], the 50% inhibitory concentration (IC50) is 71 nM. Regarding `COc1cc(Cn2c3ccccc3c3c(OCC(C)(C)C(=O)O)cccc32)ccc1OCc1nc(-c2ccncc2)oc1C` [Example 25, 3-{9-[3-methoxy-4-((5-methyl-2-pyridine-4-yl-oxazole-4-yl)methoxy)-benzyl]-9H-carbazole-4-yloxy}-2,2-dimethyl-propionic acid], the concentration for half-maximal inhibition (IC50) worked out at 430 nM.

Take `COc1cc(Cn2c3ccccc3c3c(OC(C)(C)C(=O)[O-])cccc32)ccc1OCc1nc(-c2ccccc2)oc1C.[Na+]` [Example 28, sodium 2-{9-[3-methoxy-4-((5-methyl-2-phenyl-oxazole-4-yl)methoxy)-benzyl]-9H-carbazole-4-yloxy}-2-methyl-propionate]: the IC50 was determined as 398 nM. For `CCC(Oc1cccc2c1c1ccccc1n2Cc1ccc(OCc2nc(-c3ccccc3)oc2C)c(OC)c1)C(=O)[O-].[Na+]` (stereo not drawn) [Example 31], the half-maximal inhibitory concentration (IC50) amounted to 406 nM. Then `COc1cc(Cn2c3ccccc3c3c(OC(C)(C)C(=O)[O-])cccc32)ccc1OCc1nc(-c2cccs2)oc1C.[Na+]` [Example 32], with 422 nM; and `COc1cc(Cn2c3ccccc3c3c(OCC(C)(C)C(=O)[O-])cccc32)ccc1OCc1nc(-c2ccccc2)oc1C.[Na+]` [Example 34], with 85 nM.

Consider `CC[C@H](Oc1cccc2c1c1ccccc1n2Cc1ccc(OCc2nc(-c3ccccc3)oc2C)c(OC)c1)C(=O)[O-].[Na+]` [Example 38, sodium (S)-(+)-2-{9-[3-methoxy-4-((5-methyl-2-phenyl-oxazole-4-yl)methoxy)-benzyl]-9H-carbazole-4-yloxy}butyrate], for which the IC50 was 330 nM. Turning to `COc1cc(Cn2c3ccccc3c3c(O[C@H](C)C(=O)[O-])cccc32)ccc1OCc1nc(-c2ccccc2)oc1C.[Na+]` [Example 43, sodium (R)-2-{9-[3-methoxy-4-((5-methyl-2-phenyl-oxazole-4-yl)methoxy)-benzyl]-9H-carbazole-4-yloxy}propionate], the half-maximal inhibitory concentration (IC50) was 1120 nM.
